{"source": "paper PMC4245125", "about": "“Pharmacological and Behavioral Characterization of D-473, an Orally Active Triple Reuptake Inhibitor Targeting Dopamine, Serotonin and Norepinephrine Transporters” (PLoS ONE, 2014)", "key": {"5HT2b": {"target": "5HT2b (Homo sapiens, UniProt P41595)", "sequence (P41595 whole entry)": "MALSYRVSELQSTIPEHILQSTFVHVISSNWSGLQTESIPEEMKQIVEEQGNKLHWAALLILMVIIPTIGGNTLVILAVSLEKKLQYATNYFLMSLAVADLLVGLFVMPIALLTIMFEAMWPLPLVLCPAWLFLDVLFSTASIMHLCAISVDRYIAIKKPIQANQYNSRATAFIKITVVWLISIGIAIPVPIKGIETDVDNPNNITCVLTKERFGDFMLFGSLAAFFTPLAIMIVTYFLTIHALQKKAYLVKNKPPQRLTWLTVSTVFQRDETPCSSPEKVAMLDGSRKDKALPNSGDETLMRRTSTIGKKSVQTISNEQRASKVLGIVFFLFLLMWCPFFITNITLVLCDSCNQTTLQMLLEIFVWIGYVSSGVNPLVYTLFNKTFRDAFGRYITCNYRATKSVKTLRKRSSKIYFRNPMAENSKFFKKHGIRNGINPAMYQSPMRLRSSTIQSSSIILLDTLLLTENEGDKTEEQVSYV", "test": "NIMH PDSP receptor binding, 5HT2b", "conditions": "[3H]LSD"}, "5HT7": {"target": "T1, 5HT7 (Homo sapiens, UniProt P34969)", "T1 construct": "purchased NIMH PDSP", "T1 sequence (P34969 whole entry)": "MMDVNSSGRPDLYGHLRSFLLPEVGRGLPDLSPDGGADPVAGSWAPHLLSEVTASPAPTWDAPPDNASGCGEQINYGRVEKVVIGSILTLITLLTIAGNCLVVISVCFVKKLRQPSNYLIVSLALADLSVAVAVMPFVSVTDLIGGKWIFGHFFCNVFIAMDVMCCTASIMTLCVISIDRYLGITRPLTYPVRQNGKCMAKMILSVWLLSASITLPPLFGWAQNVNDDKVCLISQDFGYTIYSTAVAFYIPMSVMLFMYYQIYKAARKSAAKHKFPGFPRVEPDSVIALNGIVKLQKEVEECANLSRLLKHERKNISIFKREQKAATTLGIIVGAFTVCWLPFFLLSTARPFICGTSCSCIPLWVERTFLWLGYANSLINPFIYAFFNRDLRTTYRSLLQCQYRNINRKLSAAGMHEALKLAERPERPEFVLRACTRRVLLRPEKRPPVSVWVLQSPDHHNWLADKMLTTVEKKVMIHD", "test": "NIMH PDSP receptor binding, 5HT7", "conditions": "[3H]LSD, read-out: % Inhibition of Binding at 10 µM D-473"}, "Alpha1A": {"target": "T2, Alpha1A (Homo sapiens, UniProt P35348)", "T2 construct": "purchased NIMH PDSP", "T2 sequence (P35348 whole entry)": "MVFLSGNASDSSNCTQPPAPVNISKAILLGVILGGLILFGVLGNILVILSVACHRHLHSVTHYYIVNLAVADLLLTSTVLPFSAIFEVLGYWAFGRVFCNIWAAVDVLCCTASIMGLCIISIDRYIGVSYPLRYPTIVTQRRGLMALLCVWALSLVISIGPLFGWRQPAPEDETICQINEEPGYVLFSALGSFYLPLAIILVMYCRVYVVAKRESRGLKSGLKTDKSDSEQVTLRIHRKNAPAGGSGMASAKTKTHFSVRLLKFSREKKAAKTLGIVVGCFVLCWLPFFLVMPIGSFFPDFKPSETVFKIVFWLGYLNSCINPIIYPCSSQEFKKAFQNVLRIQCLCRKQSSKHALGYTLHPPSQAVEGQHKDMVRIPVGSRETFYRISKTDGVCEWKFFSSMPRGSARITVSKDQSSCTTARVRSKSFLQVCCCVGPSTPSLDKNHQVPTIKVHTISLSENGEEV", "test": "NIMH PDSP receptor binding, Alpha1A", "conditions": "[3H]Prazosin, read-out: % Inhibition of Binding at 10 µM D-473"}, "Alpha2B": {"target": "T3, Alpha2B (Homo sapiens, UniProt P18089)", "T3 construct": "purchased NIMH PDSP", "T3 sequence (P18089 whole entry)": "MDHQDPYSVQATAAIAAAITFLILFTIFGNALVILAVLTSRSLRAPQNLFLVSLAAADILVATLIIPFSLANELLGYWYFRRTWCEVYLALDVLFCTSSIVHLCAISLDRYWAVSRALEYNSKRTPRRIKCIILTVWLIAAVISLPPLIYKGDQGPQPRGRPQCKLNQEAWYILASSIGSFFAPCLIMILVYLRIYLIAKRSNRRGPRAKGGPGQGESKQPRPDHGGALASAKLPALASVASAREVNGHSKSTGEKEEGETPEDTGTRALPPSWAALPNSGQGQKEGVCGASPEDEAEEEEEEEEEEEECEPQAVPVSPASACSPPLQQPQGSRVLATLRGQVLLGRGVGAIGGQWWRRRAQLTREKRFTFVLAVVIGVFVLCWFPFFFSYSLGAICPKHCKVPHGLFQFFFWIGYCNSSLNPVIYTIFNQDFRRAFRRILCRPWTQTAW", "test": "NIMH PDSP receptor binding, Alpha2B", "conditions": "[3H]Clonidine, read-out: % Inhibition of Binding at 10 µM D-473"}, "Alpha2C": {"target": "Alpha2C (Homo sapiens, UniProt P18825)", "sequence (P18825 whole entry)": "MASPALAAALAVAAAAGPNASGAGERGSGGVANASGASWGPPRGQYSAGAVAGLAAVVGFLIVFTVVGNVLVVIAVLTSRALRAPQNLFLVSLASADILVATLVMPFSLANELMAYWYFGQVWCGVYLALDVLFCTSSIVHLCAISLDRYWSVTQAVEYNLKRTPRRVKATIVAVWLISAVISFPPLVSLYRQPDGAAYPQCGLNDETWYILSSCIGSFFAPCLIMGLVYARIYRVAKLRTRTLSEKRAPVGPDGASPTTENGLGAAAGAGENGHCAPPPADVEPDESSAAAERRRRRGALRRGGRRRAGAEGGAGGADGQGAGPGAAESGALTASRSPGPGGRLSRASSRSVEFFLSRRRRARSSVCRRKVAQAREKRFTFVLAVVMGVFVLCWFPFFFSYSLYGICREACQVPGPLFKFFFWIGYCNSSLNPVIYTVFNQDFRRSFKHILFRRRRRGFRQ", "test": "NIMH PDSP receptor binding, Alpha2C", "conditions": "[3H]Clonidine"}, "κ-opioid": {"target": "T4, κ-opioid (Homo sapiens, UniProt P41145)", "T4 construct": "purchased NIMH PDSP", "T4 sequence (P41145 whole entry)": "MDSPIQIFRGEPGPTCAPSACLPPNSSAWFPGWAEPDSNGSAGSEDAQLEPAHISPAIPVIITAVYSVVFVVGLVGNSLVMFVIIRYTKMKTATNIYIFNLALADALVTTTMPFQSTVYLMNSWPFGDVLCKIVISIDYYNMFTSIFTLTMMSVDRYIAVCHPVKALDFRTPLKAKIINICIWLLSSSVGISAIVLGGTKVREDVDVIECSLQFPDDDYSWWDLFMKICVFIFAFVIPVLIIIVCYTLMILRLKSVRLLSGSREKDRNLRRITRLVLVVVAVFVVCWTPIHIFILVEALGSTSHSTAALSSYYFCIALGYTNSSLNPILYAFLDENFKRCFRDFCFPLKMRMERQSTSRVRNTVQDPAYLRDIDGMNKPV", "test": "NIMH PDSP receptor binding, κ-opioid", "conditions": "[3H]Bremazocine, read-out: % Inhibition of Binding at 10 µM D-473"}, "µ-Opioid": {"target": "T5, µ-Opioid (Homo sapiens, UniProt P35372)", "T5 construct": "purchased NIMH PDSP", "T5 sequence (P35372 whole entry)": "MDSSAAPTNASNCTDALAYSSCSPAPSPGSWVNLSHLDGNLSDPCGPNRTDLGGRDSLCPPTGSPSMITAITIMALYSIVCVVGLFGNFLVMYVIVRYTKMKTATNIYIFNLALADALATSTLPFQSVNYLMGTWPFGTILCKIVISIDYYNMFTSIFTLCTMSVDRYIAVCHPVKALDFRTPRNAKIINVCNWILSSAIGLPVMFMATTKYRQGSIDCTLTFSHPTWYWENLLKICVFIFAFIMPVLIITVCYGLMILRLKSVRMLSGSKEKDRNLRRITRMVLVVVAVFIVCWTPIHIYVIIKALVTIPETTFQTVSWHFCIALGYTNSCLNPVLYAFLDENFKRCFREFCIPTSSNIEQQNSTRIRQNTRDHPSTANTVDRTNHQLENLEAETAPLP", "test": "NIMH PDSP receptor binding, µ-Opioid", "conditions": "[3H]Diprenorphine, read-out: % Inhibition of Binding at 10 µM D-473"}, "M2": {"target": "T6, M2 (Homo sapiens, UniProt P08172)", "T6 construct": "purchased NIMH PDSP", "T6 sequence (P08172 whole entry)": "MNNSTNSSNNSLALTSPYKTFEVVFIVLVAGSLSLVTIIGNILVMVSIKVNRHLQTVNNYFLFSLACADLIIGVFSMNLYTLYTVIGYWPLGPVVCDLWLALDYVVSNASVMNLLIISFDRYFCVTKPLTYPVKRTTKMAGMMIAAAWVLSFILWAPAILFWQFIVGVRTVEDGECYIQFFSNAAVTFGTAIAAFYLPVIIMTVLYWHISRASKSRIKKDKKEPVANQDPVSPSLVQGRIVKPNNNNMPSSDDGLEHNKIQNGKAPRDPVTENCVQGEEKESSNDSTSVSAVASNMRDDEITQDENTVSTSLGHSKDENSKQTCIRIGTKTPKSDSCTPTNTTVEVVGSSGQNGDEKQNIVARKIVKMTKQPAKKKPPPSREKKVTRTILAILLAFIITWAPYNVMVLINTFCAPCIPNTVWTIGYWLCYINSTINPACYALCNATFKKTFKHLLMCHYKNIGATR", "test": "biochemical", "conditions": "read-out: % Inhibition of Binding at 10 µM D-473"}, "M4": {"target": "T7, M4 (Homo sapiens, UniProt P08173)", "T7 construct": "purchased NIMH PDSP", "T7 sequence (P08173 whole entry)": "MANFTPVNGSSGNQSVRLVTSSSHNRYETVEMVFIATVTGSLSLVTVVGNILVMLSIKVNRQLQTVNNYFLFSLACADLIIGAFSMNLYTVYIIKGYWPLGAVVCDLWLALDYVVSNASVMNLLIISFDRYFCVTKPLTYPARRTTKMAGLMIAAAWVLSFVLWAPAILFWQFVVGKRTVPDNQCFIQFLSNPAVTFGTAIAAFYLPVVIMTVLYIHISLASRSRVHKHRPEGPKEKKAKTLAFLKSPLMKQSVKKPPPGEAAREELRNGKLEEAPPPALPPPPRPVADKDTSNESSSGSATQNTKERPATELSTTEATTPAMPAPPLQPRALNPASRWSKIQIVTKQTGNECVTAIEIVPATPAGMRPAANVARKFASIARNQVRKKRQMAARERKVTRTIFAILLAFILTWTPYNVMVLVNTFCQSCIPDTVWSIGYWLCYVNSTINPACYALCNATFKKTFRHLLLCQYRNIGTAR", "test": "biochemical", "conditions": "read-out: % Inhibition of Binding at 10 µM D-473"}, "[1]": {"test_system": "extracellular DA, 5-HT, NE and metabolites in the medial prefrontal cortex (mPFC)", "test": "Microdialysis in medial prefrontal cortex, monoamines and metabolites", "type": "in vivo, rat", "conditions": "10 mg/kg i.p.", "description": "Adult male Sprague-Dawley rats (Harlan, Indianapolis, IN) weighing between 250 and 350 g were used for all experiments. Rats were housed in a temperature and humidity controlled room with 12 hr light/dark cycles with food and water available ad libitum. Adequate measures were taken to prevent animal pain and discomfort. All animals were treated as approved by the University of Michigan Unit for Laboratory Animal Medicine (ULAM) and in accordance with the National Institute of Health (NIH) Guidelines for the Care and Use of Laboratory Animals.\nRats were anesthetized with using an isoflurane vaporizer that was interfaced to a model 963 Ultra Precise stereotaxic instrument with 0.1 mm resolution (David Kopf Instruments, Tujunga, CA). Concentrically designed microdialysis probes (1 mm dialyzing length) were built in house then implanted bilaterally into the dorsal lateral striatum (DLS) and the medial prefrontal cortex (mPFC) according to the following coordinates from bregma and dura (in mm): AP +1, ML +3.3, DV –5.7 and AP +3, ML −0.5, DV −5, respectively (Paxinos and Watson, 2007). […] 1 mm probes were selected for higher spatial resolution and lower tissue damage compared to larger probes. Probes were secured to the skull by acrylic dental cement and metallic screws. Following surgery, rats were allowed to recover and experiments were run 24 hr after probe implantation. Microdialysis probes were flushed at a flow rate of 2 µl/min with aCSF (composition in mM: CaCl2 1.2; KCl 2.7, NaCl 148 and MgCl2 0.85) for 2 hr using a Chemyx Fusion 400 syringe pump (Chemyx, Stafford, TX). Perfusion flow rate was then reduced to 1 µl/min and samples were collected every 10 min. Baseline values were collected for 50 min and then the drug D-473 was injected (10 mg/kg, i.p.) and samples were collected for an additional 2 h. When experiments were completed, animals were euthanized and then brains were extracted and frozen at −80°C until histology.\nDopamine, norepinephrine (NE), serotonin (5HT), DOPAC, homovanillic acid (HVA) and 5-hydroxyindole acetic acid (5-HIAA) were analyzed using a benozyolation derivitization LC-MS method recently described by our laboratory. Briefly, 10 µl dialysate samples were derivatized by adding 5 µl of 100 mM sodium tetraborate, 5 µl of 2% benzoyl chloride in acetonitrile, and then 5 µl of a stable ^13C benzoylated isotope internal standard mixture was then added to improve quantitation. A Thermo Fisher Accela UHPLC (Waltham, MA) system automatically injected 5 µl of the sample onto a Waters (Milford, MA) HSS T3 reverse phase HPLC column (1 mm X 100 mm, 1.8 µm). Mobile phase A consisted of 10 mM ammonium formate and 0.15% formic acid. Mobile phase B was pure acetonitrile. Analytes were detected by an Thermo Fisher TSQ Quantum Ultra triple quadrupole mass spectrometer operating in multiple reaction monitoring (MRM) mode. The assay limits of detection were (nM in dialysate) for DA, 0.3; NE, 0.2; 5HT, 0.1; HVA, 0.5; DOPAC, 2; and 5HIAA, 5. […] Average standard deviation in above basal levels was 18%.\nAll neurochemical data were transformed into percent baseline with baseline values all averaging 100%. Statistical analysis was performed by t-test analysis of every point relative to baseline values (i.e. 100%) using Prism 6 (Graphpad Software Inc, La Jolla, CA). P values <0.05 were considered to be statistically significant."}, "[2]": {"conditions": "10 µM, read-out: % Inhibition of Binding at 10 µM D-473"}, "[3]": {"conditions": "secondary assay, read-out: Ki for D-473"}}}
{"smiles": "COc1ccc(CN[C@@H]2CO[C@H](C(c3ccc(F)cc3)c3ccc(F)cc3)C[C@H]2O)cc1", "note": "[Compound D-473, (2S,4R,5R)-2-(bis(4-fluorophenyl)methyl)-5-((4-methoxybenzyl)amino)tetrahydro-2H-pyran-4-ol]", "values": [{"measurement": "inhibition at 10 µM", "setting": "5HT2b; [2]", "result": 70.8, "unit": "%"}, {"measurement": "Ki", "setting": "5HT2b; [3]", "result": 597, "unit": "nM"}, {"measurement": "inhibition at 10 µM", "setting": "5HT7", "result": 41.4, "unit": "%"}, {"measurement": "inhibition at 10 µM", "setting": "Alpha1A", "result": 23.6, "unit": "%"}, {"measurement": "inhibition at 10 µM", "setting": "Alpha2B", "result": 25.4, "unit": "%"}, {"measurement": "inhibition at 10 µM", "setting": "Alpha2C; [2]", "result": 61, "unit": "%"}, {"measurement": "Ki", "setting": "Alpha2C; [3]", "result": "> 10000", "unit": "nM"}, {"measurement": "inhibition at 10 µM", "setting": "κ-opioid", "result": 48.5, "unit": "%"}, {"measurement": "inhibition at 10 µM", "setting": "µ-Opioid", "result": 20.5, "unit": "%"}, {"measurement": "inhibition at 10 µM", "setting": "M2", "result": -9.5, "unit": "%"}, {"measurement": "inhibition at 10 µM", "setting": "M4", "result": -16.7, "unit": "%"}, {"measurement": "Reductions in dialysate DOPAC", "setting": "[1]; Figure 8, region not specified", "result": "up to 35%"}, {"measurement": "Change in the level of 5-HIAA", "setting": "[1]; region not specified (mPFC and DLS studied)", "result": "did not observe any change"}, {"measurement": "Effect on HVA", "setting": "[1]; mPFC", "result": "lack of effect"}, {"measurement": "Increase of 5-HT", "setting": "[1]; mPFC", "result": "> 3", "unit": "fold"}, {"measurement": "Increase of DA", "setting": "[1]; mPFC", "result": 4, "unit": "fold"}, {"measurement": "Increase of NE", "setting": "[1]; mPFC", "result": "> 5", "unit": "fold"}, {"measurement": "Reduction of DOPAC, maximal", "setting": "[1]; mPFC", "result": "35–40%"}, {"measurement": "Extracellular 5-HT at the end of two hours, percent baseline", "setting": "[1]; mPFC, baseline 100%", "result": 150, "unit": "%"}, {"measurement": "Extracellular 5HT, maximal, percent baseline", "setting": "[1]; mPFC, baseline 100%", "result": 339, "unit": "%"}, {"measurement": "Extracellular DA at the end of two hours, percent baseline", "setting": "[1]; mPFC, baseline 100%", "result": 122, "unit": "%"}, {"measurement": "Extracellular DA, maximal, percent baseline", "setting": "[1]; mPFC, baseline 100%", "result": 394, "unit": "%"}, {"measurement": "Extracellular NE at the end of two hours, percent baseline", "setting": "[1]; mPFC, baseline 100%", "result": 173, "unit": "%"}, {"measurement": "Extracellular NE, maximal, percent baseline", "setting": "[1]; mPFC, baseline 100%", "result": 547, "unit": "%"}]}
